Measured values taken from patent US12018021B2 (UCB Biopharma SRL, priority 2018, dated 2024).

Target: IgE-Tb / FcεRIα-Y131A-AF488 (Homo sapiens, UniProt P01854)
Assay: IgE-Tb / FcεRIα-Y131A-AF488 FRET assay (protocol for examples 1 to 233)
Format: binding
Conditions: examples 1 to 233: 5 nM IgE-Tb, 25 nM FcεRIα-Y131A-AF488, incubated 2 hours at room temperature; read-out: Y131A FRET IC50 range
Summary of the method: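 TR-FRET displacement with 5 nM IgE-Tb and 25 nM FcεRIα-Y131A-AF488 (final), 10-point 3-fold compound dilutions from typically 10 μM top, 2% DMSO, 2 h at room temperature. Excitation 330 nm, 520/495 nm emission ratio; MIN set with 200 nM unlabelled FcεRIα. IC50 from four-parameter logistic fit of percent inhibition.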

IgE-Tb / FcεRIα-Y131A-AF488, sequence (P01854 1-427 limits assumed, stated change not applied): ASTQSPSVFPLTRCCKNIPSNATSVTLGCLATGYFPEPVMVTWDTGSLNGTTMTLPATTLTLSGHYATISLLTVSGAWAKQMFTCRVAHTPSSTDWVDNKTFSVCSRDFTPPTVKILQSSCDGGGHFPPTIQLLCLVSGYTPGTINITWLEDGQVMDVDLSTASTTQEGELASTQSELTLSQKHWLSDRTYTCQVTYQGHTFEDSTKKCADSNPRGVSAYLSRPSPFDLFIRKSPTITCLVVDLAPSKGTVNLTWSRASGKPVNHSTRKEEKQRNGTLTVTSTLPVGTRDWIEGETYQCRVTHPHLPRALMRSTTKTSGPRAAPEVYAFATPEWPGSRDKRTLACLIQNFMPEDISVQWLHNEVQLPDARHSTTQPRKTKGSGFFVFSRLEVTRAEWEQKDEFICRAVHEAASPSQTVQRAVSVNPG

SMILES	IC50
Cc1nn(C)cc1Nc1nncn1[C@H]1CCc2sc(NC(=O)C3CC3)c(C(=O)NCC3CC3)c2C1 [Example 218, (5S)-2-(cyclopropanecarbonylamino)-N-(cyclopropylmethyl)-5-[3-[(1,3-dimethylpyrazol-4-yl)amino]-1,2,4-triazol-4-yl]-4,5,6,7-tetrahydrobenzothiophene-3-carboxamide]	< 1000 nM
Cc1cc(Nc2nncn2[C@H]2CCc3sc(NC(=O)C4CC4)c(C(=O)NCC4CC4)c3C2)n(C2CCOC2)n1 (stereo partly drawn) [Example 223, (5S)-2-(cyclopropanecarbonylamino)-N-(cyclopropylmethyl)-5-[3-[(5-methyl-2-tetrahydrofuran-3-yl-pyrazol-3-yl)amino]-1,2,4-triazol-4-yl]-4,5,6,7-tetrahydrobenzothiophene-3-carboxamide]	< 1000 nM
O=C(NCC1CC1)c1c(NC(=O)C2CC2)sc2c1CC(Nc1nncn1-c1ccc(F)cc1)CC2 (stereo not drawn) [Example 165, 2-(Cyclopropanecarbonylamino)-N-(cyclopropylmethyl)-5-[[4-(4-fluorophenyl)-1,2,4-triazol-3-yl]amino]-4,5,6,7-tetrahydrobenzothiophene-3-carboxamide]	< 1000 nM
COc1ccc(CCNC(=O)C2CCc3sc(NC(=O)C4CC4)c(C(=O)NCC4CC4)c3C2)cc1 (stereo not drawn) [Example 48, 2-(Cyclopropanecarbonylamino)-N3-(cyclopropylmethyl)-N5-[2-(4-methoxyphenyl)ethyl]-4,5,6,7-tetrahydrobenzothiophene-3,5-dicarboxamide]	< 1000 nM
CNC(=O)c1c(NC(=O)C2CC2)sc2c1CCCC2O (stereo not drawn) [Example 79, 2-(Cyclopropanecarbonylamino)-7-hydroxy-N-methyl-4,5,6,7-tetrahydrobenzothiophene-3-carboxamide]	10000 to 50000 nM
Nc1cnnn1C1CCc2sc(NC(=O)C3CC3)c(C(=O)NCC3CC3)c2C1 (stereo not drawn) [Example 171, 5-(5-Aminotriazol-1-yl)-2-(cyclopropanecarbonylamino)-N-(cyclopropylmethyl)-4,5,6,7-tetrahydrobenzothiophene-3-carboxamide]	< 1000 nM
CC(C)C(=O)Nc1sc2c(c1C(=O)NCC1CC1)CCCC2 [Example 87, N-(Cyclopropylmethyl)-2-(2-methylpropanoylamino)-4,5,6,7-tetrahydrobenzothiophene-3-carboxamide]	10000 to 50000 nM
Cc1cc(Nc2nncn2[C@H]2CCc3sc(NC(=O)C4CC4)c(C(=O)NCC4CC4)c3C2)n(C(C)C)n1 [Example 222, (5S)-2-(cyclopropanecarbonylamino)-N-(cyclopropylmethyl)-5-[3-[(2-isopropyl-5-methyl-pyrazol-3-yl)amino]-1,2,4-triazol-4-yl]-4,5,6,7-tetrahydrobenzothiophene-3-carboxamide]	< 1000 nM
CC(=O)N1CCCc2c1sc(NC(=O)C1CC1)c2C(=O)NCC1CC1 [Example 7, 7-Acetyl-2-(cyclopropanecarbonylamino)-N-(cyclopropylmethyl)-5,6-dihydro-4H-thieno[2,3-b]pyridine-3-carboxamide]	10000 to 50000 nM
COC1CN(C(=O)c2c(NC(=O)C3CC3)sc3c2CCCC3)C1 [Example 77]	1000 to 10000 nM
Cn1nc(C(F)F)cc1Nc1nncn1[C@H]1CCc2sc(NC(=O)C3CC3)c(C(=O)NCC3CC3)c2C1 [Example 229, (5S)-2-(Cyclopropanecarbonylamino)-N-(cyclopropylmethyl)-5-[3-[[5-(difluoromethyl)-2-methyl-pyrazol-3-yl]amino]-1,2,4-triazol-4-yl]-4,5,6,7-tetrahydrobenzothiophene-3-carboxamide]	< 1000 nM
Cn1nc(C(=O)O)cc1Nc1nncn1[C@H]1CCc2sc(NC(=O)C3CC3)c(C(=O)NCC3CC3)c2C1 [Example 233, 5-[[4-[(5S)-2-(Cyclopropanecarbonylamino)-3-(cyclopropylmethylcarbamoyl)-4,5,6,7-tetrahydrobenzothiophen-5-yl]-1,2,4-triazol-3-yl]amino]-1-methyl-pyrazole-3-carboxylic acid]	< 1000 nM
O=C(NCC1CC1)c1c(NC(=O)C2CCC2)sc2c1CCCC2 [Example 88, 2-(Cyclobutanecarbonylamino)-N-(cyclopropylmethyl)-4,5,6,7-tetrahydrobenzothiophene-3-carboxamide]	10000 to 50000 nM
CCNC(=N[N+](=O)[O-])NC1CCc2sc(NC(=O)C3CC3)c(C(=O)NCC3CC3)c2C1 (stereo not drawn) [Example 123, 2-(cyclopropanecarbonylamino)-N-(cyclopropylmethyl)-5-[(N-ethyl-N′-nitro-carbamimidoyl)amino]-4,5,6,7-tetrahydrobenzothiophene-3-carboxamide]	< 1000 nM
CCOC(=O)c1ncn([C@H]2CCc3sc(NC(=O)C4CC4)c(C(=O)NCC4CC4)c3C2)c1N [Example 117, Ethyl 5-amino-1-[(5S)-2-(cyclopropanecarbonylamino)-3-(cyclopropylmethylcarbamoyl)-4,5,6,7-tetrahydrobenzothiophen-5-yl]imidazole-4-carboxylate]	< 1000 nM
CCn1cnnc1NCC1CCc2sc(NC(=O)C3CC3)c(C(=O)NCC3CC3)c2C1 (stereo not drawn) [Example 59, 2-(Cyclopropanecarbonylamino)-N-(cyclopropylmethyl)-5-[[(4-ethyl-1,2,4-triazol-3-yl)amino]methyl]-4,5,6,7-tetrahydrobenzothiophene-3-carboxamide]	< 1000 nM
O=C(NCC1CC1)c1c(NC(=O)C2CC2)sc2c1CC(N1CCOCC1)CC2 (stereo not drawn) [Example 201, 2-(Cyclopropanecarbonylamino)-N-(cyclopropylmethyl)-5-morpholino-4,5,6,7-tetrahydrobenzothiophene-3-carboxamide]	1000 to 10000 nM
CC1(O)CCc2sc(NC(=O)C3CC3)c(C(=O)NCC3CC3)c2C1 (stereo not drawn) [Example 74, 2-(Cyclopropanecarbonylamino)-N-(cyclopropylmethyl)-5-hydroxy-5-methyl-6,7-dihydro-4H-benzothiophene-3-carboxamide]	10000 to 50000 nM
O=C(NCC1CC1)c1c(NC(=O)C2CC2)sc2c1CC(c1cc[nH]n1)CC2 (stereo not drawn) [Example 100, 2-(Cyclopropanecarbonylamino)-N-(cyclopropylmethyl)-5-(1H-pyrazol-3-yl)-4,5,6,7-tetrahydrobenzothiophene-3-carboxamide]	< 1000 nM
CCNc1c(NC2CCc3sc(NC(=O)C4CC4)c(C(=O)NCC4CC4)c3C2)c(=O)c1=O (stereo not drawn) [Example 120, 2-(Cyclopropanecarbonylamino)-N-(cyclopropylmethyl)-5-[[2-(ethylamino)-3,4-dioxo-cyclobuten-1-yl]amino]-4,5,6,7-tetrahydrobenzothiophene-3-carboxamide]	< 1000 nM
NC1CCc2sc(NC(=O)C3CC3)c(C(=O)NCC3CC3)c2C1 (stereo not drawn) [Example 109, 5-Amino-2-(cyclopropanecarbonylamino)-N-(cyclopropylmethyl)-4,5,6,7-tetrahydrobenzothiophene-3-carboxamide]	10000 to 50000 nM
O=C(NCC1CC1)c1c(NC(=O)C2CC2)sc2c1CC(NCc1ccccc1)CC2 (stereo not drawn) [Example 174, 5-(Benzylamino)-2-(cyclopropanecarbonylamino)-N-(cyclopropylmethyl)-4,5,6,7-tetrahydrobenzothiophene-3-carboxamide]	10000 to 50000 nM
CC(C)CNS(=O)(=O)c1c(NC(=O)C2CC2)sc2c1CC(Nc1ncccn1)CC2 (stereo not drawn) [Example 23, N-[3-(Isobutylsulfamoyl)-5-(pyrimidin-2-ylamino)-4,5,6,7-tetrahydrobenzothiophen-2-yl]cyclopropanecarboxamide]	< 1000 nM
NC(=NO)NC1CCc2sc(NC(=O)C3CC3)c(C(=O)NCC3CC3)c2C1 (stereo not drawn) [Example 176, 2-(Cyclopropanecarbonylamino)-N-(cyclopropylmethyl)-5-[[N′-hydroxycarbamimidoyl]amino]-4,5,6,7-tetrahydrobenzothiophene-3-carboxamide]	< 1000 nM
O=C(NC1CCc2sc(NC(=O)C3CC3)c(C(=O)NCC3CC3)c2C1)c1ccncc1 (stereo not drawn) [Example 173, N-[2-(Cyclopropanecarbonylamino)-3-(cyclopropylmethylcarbamoyl)-4,5,6,7-tetrahydrobenzothiophen-5-yl]pyridine-4-carboxamide]	1000 to 10000 nM
CCNC(=O)C1CCCc2c1sc(NC(=O)C1CC1)c2S(=O)(=O)NCC(C)C (stereo not drawn) [Example 27, 2-(Cyclopropanecarbonylamino)-N-ethyl-3-(isobutylsulfamoyl)-4,5,6,7-tetrahydrobenzothiophene-7-carboxamide]	1000 to 10000 nM
Cc1cncc(Nc2nncn2C2CCc3sc(NC(=O)C4CC4)c(C(=O)NCC4CC4)c3C2)c1 (stereo in doubt) [Example 114, (5S)-2-(cyclopropanecarbonylamino)-N-(cyclopropylmethyl)-5-[3-[(5-methyl-3-pyridyl)amino]-1,2,4-triazol-4-yl]-4,5,6,7-tetrahydrobenzothiophene-3-carboxamide]	< 1000 nM
O=C(NCC1CC1)c1c(NC(=O)C2CC2)sc2c1CC(n1cnnc1NCCN1CCOCC1)CC2 (stereo in doubt) [Example 118, (5S)-2-(Cyclopropanecarbonylamino)-N-(cyclopropylmethyl)-5-[3-(2-morpholinoethylamino)-1,2,4-triazol-4-yl]-4,5,6,7-tetrahydrobenzothiophene-3-carboxamide]	< 1000 nM
O=C(NCC1CC1)c1c(NC(=O)C2CC2)sc2c1CC(C(=O)Nc1cccnc1)CC2 (stereo not drawn) [Example 54, 2-(Cyclopropanecarbonylamino)-N3-(cyclopropylmethyl)-N5-(3-pyridyl)-4,5,6,7-tetrahydrobenzothiophene-3,5-dicarboxamide]	< 1000 nM
O=C(NCC1CC1)c1c(NC(=O)C2CC2)sc2c1CC(C(=O)Nc1nnn[nH]1)CC2 (stereo not drawn) [Example 51, 2-(Cyclopropanecarbonylamino)-N3-(cyclopropylmethyl)-N5-(1H-tetrazol-5-yl)-4,5,6,7-tetrahydrobenzothiophene-3,5-dicarboxamide]	< 1000 nM
